Data set [1] relates to Escherichia coli. The experiment in a line: Antibacterial activity against intact Escherichia coli DH5alpha expressing wild-type tetracycline efflux transporter TetA(B) gene. It counts as functional.
Data set [2] relates to Escherichia coli. Nature of the data set: Antibacterial activity against intact Escherichia coli DH5alpha. The format is functional.
Data set [3] relates to Escherichia coli. The experiment in a line: Antibacterial activity against intact Escherichia coli DH5alpha expressing tetracycline efflux transporter TetA(B) Asp190Cys mutant gene. The format is functional.
Substrate in data set [4]: CN(C)[C@@H]1C(O)=C(C(N)=O)C(=O)[C@@]2(O)C(O)=C3C(=O)c4c(O)cccc4[C@@](C)(O)[C@H]3C[C@@H]12
Nature of the data set: Activity of tetracycline efflux transporter TetA(B) in Escherichia coli DH5alpha membrane vesicles assessed as [3H]tetracycline uptake. The format is cell membranes.

Substrate in data set [5]: CN(C)[C@@H]1C(O)=C(C(N)=O)C(=O)[C@@]2(O)C(O)=C3C(=O)c4c(O)cccc4[C@@](C)(O)[C@H]3C[C@@H]12
The experiment in a line: Activity of tetracycline efflux transporter TetA(B) in Escherichia coli DH5alpha membrane vesicles assessed as [3H]tetracycline uptake per mg of protein. The format is cell membranes.

Substrate in data set [6]: CN(C)[C@@H]1C(O)=C(C(N)=O)C(=O)[C@@]2(O)C(O)=C3C(=O)c4c(O)cccc4[C@@](C)(O)[C@H]3C[C@@H]12
Nature of the data set: Activity of tetracycline efflux transporter TetA(B) Asp190Cys mutant in Escherichia coli DH5alpha membrane vesicles assessed as [3H]tetracycline uptake per mg of protein. It counts as cell membranes.

Substrate in data set [7]: CN(C)[C@@H]1C(O)=C(C(N)=O)C(=O)[C@@]2(O)C(O)=C3C(=O)c4c(O)cccc4[C@@](C)(O)[C@H]3C[C@@H]12
The experiment in a line: Activity of tetracycline efflux transporter TetA(B) Asp190Cys mutant in Escherichia coli DH5alpha membrane vesicles assessed as [3H]tetracycline uptake. The format is cell membranes.

Numbering of substitutions follows the chain as printed. Names and notes keep the numbering of the source. Values after ≈ are worked out from the molar mass of the structure shown.

As a reminder, the MIC is the lowest concentration found to suppress growth. Higher therefore signals a need for much substance. Turning to `C[C@H]1c2cccc(O)c2C(=O)C2=C(O)[C@]3(O)C(=O)C(C(N)=O)=C(O)[C@@H](N(C)C)[C@@H]3[C@@H](O)[C@@H]21.O` [DOXYCYCLINE], the MIC in data set [1] was 32 µg/mL; in data set [2], 1.25 µg/mL; in data set [3] it was 14 µg/mL.

Take `CN(C)[C@@H]1C(O)=C(C(N)=O)C(=O)[C@@]2(O)C(O)=C3C(=O)c4c(O)cccc4[C@@](C)(O)[C@H]3C[C@@H]12` [TETRACYCLINE]: the values for the MIC in data set [1], in data set [2] and in data set [3] were 128 µg/mL (≈ 288 µM), 0.75 µg/mL (≈ 1.69 µM) and 11 µg/mL (≈ 24.8 µM), respectively.

B1: Tetracycline resistance protein, class B (Escherichia coli), P02980 (protein)
chain: MNSSTKIALVITLLDAMGIGLIMPVLPTLLREFIASEDIANHFGVLLALYALMQVIFAPWLGKMSDRFGRRPVLLLSLIGASLDYLLLAFSSALWMLYLGRLLSGITGATGAVAASVIADTTSASQRVKWFGWLGASFGLGLIAGPIIGGFAGEISPHSPFFIAALLNIVTFLVVMFWFRETKNTRDNTDTEVGVETQSNSVYITLFKTMPILLIIYFSAQLIGQIPATVWVLFTENRFGWNSMMVGFSLAGLGLLHSVFQAFVAGRIATKWGEKTAVLLGFIADSSAFAFLAFISEGWLVFPVLILLAGGGIALPALQGVMSIQTKSHQQGALQGLLVSLTNATGVIGPLLFAVIYNHSLPIWDGWIWIIGLAFYCIIILLSMTFMLTPQAQGSKQETSA
A word on the Km: it is the substrate concentration at which the rate is half of its maximum. By Vmax is commonly meant the top rate of the reaction or transport when substrate is in excess. As for B1, the Km in data set [4] worked out at 22 µM. In addition, the Vmax in data set [5] is 1270 pmol/min.

B2: Tetracycline resistance protein, class B (Escherichia coli), P02980 D190C (protein)
chain: B1 chain with D190C
For the molecule B2, the maximum rate (Vmax) in data set [6] is 1330 pmol/min. Moreover, the Km in data set [7] came out at 83 µM.

Values taken from ChEMBL document CHEMBL1155147, “Interdomain loop mutation Asp190Cys of the tetracycline efflux transporter TetA(B) decreases affinity for substrate” (2007).
